According to PMC10518255, “A first-in-class pan-lysyl oxidase inhibitor impairs stromal remodeling and enhances gemcitabine response and survival in pancreatic cancer” (Nature Cancer, 2023):
Several values for one entry are separate records, joined by “and”; a condition that tells them apart may be missing. Equal entries are not always repeated.

System: pMLC2
Assay: Immunohistochemistry of end-point KPC tumors: stromal regions
Format: in vivo, mouse
Conditions: for Quantification of pMLC2 positive staining in stromal regions: Extended Data 6D, KPC tumours at endpoint, individual FOV
Protocol: All tissues or matrices, including patient TMAs, were fixed in 10% buffered formalin and embedded in paraffin. The 4-μm sections of samples were deparaffinized with xylene and rehydrated in graded ethanol washes. For immunohistochemistry, Bond Dewax Solution (AR9222) was used. Antigen retrieval was performed using Bond RX H2(30) protocol: HIER 30 min ER1 (citrate pH 6) OR ER2 (EDTA pH 9) at 100 °C. Slides were quenched in BOND Polymer Refine Detection (Leica Biosystems DS9800). […] Slides were digitized on an Aperio slide scanner and representative areas per tumor acquired and analyzed by researchers blinded to the conditions of the experiment.
Extended Data Fig. 6 PXS-5505 in combination with gemcitabine in a KPC model. a. Quantification of proliferating cells (Ki67 positive nuclear staining) in KPC tumors at end point, treated as indicated. 5 fields of view (500 μm × 500 μm) per mouse and 10 mice per cohort were scored. […] Quantification of percent coverage of αSMA positive staining in KPC tumors at end point, treated as indicated. 3 fields of view (1000 μm × 1000 μm) per mouse and 10 mice per cohort were scored. […] Quantification of percent coverage of PDGFR-ß positive staining in KPC tumors at end point, treated as indicated. 3 fields of view (1000 μm × 1000 μm) per mouse and 10 mice per cohort were scored. […] Quantification of pMLC2 positive staining in stromal regions of KPC tumors at end point, treated as indicated. 3 fields of view (500 μm × 500 μm) per mouse and 10 mice per cohort were scored. […] Quantification of tumor vasculature (CD31 positive staining) in KPC tumors at end point, treated as indicated. 3 fields of view (1000 μm × 1000 μm) per mouse and 10 mice per cohort were scored. […] Quantification of STAT3 activation (pSTAT3 positive nuclear staining) in KPC tumors at end point, treated as indicated. 3 fields of view (1000 μm × 1000 μm) per mouse and 5 mice per cohort were scored. […] Scale bars = 100 μm. g Quantification of macrophage infiltration (F4/80 positive staining) in KPC tumors at end point, treated as indicated. […]

## Nc1ccn([C@@H]2O[C@H](CO)[C@@H](O)C2(F)F)c(=O)n1 [Gem, gemcitabine]
  Quantification of pMLC2 positive staining in stromal regions: 92.08 and 84.2 and 87.45 and 82.3 and 82.92 and 94.71 and 90.49 and 43.06 and 73.39 and 39.68 and 25.28 and 42.05 and 30.69 and 23.6 and 44.73 and 91.07 and 86.73 and 81.83 and 77.4 and 63.11 and 93.35 and 65.58 and 88.53 and 67.95 and 49 and 89.81 and 73.17 and 62.17 and 93.12 and 52.2
KPC tumors at end point
  pMLC2 in stromal regions: increased pMLC2

## Cl.Cl.NC/C=C(\F)CS(=O)(=O)c1cccc2cccnc12.O [PXS-5505, (Z)-3-fluoro-4-(quinolin-8-ylsulfonyl)but-2-en-1-amine dihydrochloride monohydrate]
  Quantification of pMLC2 positive staining in stromal regions: 16.71 and 49.28 and 7.302 and 93.81 and 91.78 and 78.97 and 53.28 and 54.73 and 45.61 and 13.2 and 20.93 and 42.23 and 36.07 and 17.51 and 40.83 and 47.04 and 47.28 and 39.88 and 19.03 and 15.52 and 73.22 and 64.14 and 60.07 and 90.97 and 8.8 and 20.91 and 61.66 and 4.245 and 28.34 and 17.54
